Assay results taken from patent publication US11911364B2, “Positive allosteric modulators of GABAA receptor” (PEPTICOM LTD., priority 2018, dated 2024).

Target: T1, human GABA receptor (subunits α1β3γ2) (Homo sapiens, UniProt P14867+P18507+P28472)
T1 construct: expressed in transfected cells; host or cells: HEK293
Assay: Manual whole-cell patch-clamp recording of GABA receptor-mediated Cl- current in HEK293 cells
Type: cell-based
Settings: for mode of action at the human GABAA receptor: human GABAA receptor α1β3γ2, electrophysiological recordings; for effect on human GABA receptor-mediated Cl- current: human α1β3γ2 receptor expressed in HEK293 cells, manual whole-cell patch-clamp
Experimental: All the compounds of the present invention were tested and validated using electrophysiological recordings on the human GABAA receptor comprising of the following subunits α1β3γ2. The compounds of the present invention are used in the preparation of a neuroactive pharmaceutical composition, in improving sperm motility or in labeling of biomolecules.
The human GABA receptor (subunits α1β3γ2) was expressed in HEK293 cells in manual whole-cell patch-clamp settings.
These compounds of the present invention are experimentally shown to specifically bind to the GABAA receptor. Therefore, they are capable of activating, inhibiting or modulating the GABAA receptor. These compounds were derived in-silico and tested in-vitro in cell cultures. […] The human GABA receptor (subunits α1β3γ2) used in these experiments was expressed in the HEK293 cells in manual whole-cell patch-clamp settings.

T1 sequence (P14867 28-456): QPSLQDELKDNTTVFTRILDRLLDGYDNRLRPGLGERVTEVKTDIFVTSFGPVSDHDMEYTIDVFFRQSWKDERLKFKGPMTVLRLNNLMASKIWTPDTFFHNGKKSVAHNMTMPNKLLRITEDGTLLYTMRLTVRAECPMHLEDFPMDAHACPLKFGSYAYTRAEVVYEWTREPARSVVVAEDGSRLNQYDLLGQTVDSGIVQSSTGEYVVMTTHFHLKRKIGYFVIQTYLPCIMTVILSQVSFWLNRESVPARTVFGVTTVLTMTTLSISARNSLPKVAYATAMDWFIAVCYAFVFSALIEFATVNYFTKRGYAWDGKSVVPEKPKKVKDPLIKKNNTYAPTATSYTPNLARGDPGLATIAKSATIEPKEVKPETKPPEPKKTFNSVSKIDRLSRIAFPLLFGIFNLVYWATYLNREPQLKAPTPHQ
T1 sequence (P28472 26-473): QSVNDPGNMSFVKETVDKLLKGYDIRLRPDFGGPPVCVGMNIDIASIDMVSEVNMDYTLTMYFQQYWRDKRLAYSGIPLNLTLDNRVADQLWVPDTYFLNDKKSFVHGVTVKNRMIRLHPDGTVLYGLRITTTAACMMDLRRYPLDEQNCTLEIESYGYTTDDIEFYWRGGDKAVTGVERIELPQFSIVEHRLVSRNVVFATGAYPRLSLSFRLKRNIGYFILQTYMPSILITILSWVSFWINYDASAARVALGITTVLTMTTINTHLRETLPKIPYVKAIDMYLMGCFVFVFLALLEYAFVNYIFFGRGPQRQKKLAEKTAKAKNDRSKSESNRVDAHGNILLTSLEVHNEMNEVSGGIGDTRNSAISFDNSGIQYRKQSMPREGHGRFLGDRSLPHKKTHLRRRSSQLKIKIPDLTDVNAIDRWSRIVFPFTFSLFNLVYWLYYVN
T1 sequence (P18507 40-475): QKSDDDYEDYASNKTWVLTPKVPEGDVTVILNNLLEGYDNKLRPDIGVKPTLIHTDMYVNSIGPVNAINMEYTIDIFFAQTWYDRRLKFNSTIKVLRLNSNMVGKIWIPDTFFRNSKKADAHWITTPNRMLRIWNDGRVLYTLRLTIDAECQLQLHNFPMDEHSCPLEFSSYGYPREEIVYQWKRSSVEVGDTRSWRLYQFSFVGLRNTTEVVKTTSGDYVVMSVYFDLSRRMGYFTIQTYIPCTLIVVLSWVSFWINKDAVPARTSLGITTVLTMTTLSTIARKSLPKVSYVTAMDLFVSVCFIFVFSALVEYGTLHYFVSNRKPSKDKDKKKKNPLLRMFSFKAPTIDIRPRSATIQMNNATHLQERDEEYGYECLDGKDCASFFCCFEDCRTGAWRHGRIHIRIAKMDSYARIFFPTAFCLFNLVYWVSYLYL

mode of action at the human GABAA receptor | effect on human GABA receptor-mediated Cl- current | SMILES
positive allosteric modulation | selective potentiation | CC(C)CC(NC(=O)c1ccc(S(N)(=O)=O)o1)c1cccs1 (stereo not shown) [Compound 1]
inhibiting | selective potentiation | O=C(O)CC1(c2ccc(Br)cc2)CNC1 [Compound 2]
